Experimental data as given in patent US20080242674A1, “Medicine For Prevention or Treatment of Frequent Urination or Urinary Incontinence” (priority 2004, published 2008).
Counter-ions that a name gives are not always drawn.

Legend:
[1] = tested on: acetic acid-stimulated rats; test: Micturition interval measurement in acetic acid-stimulated rat; type: in vivo; conditions: female rats, urethane anesthesia, 0.25% acetic acid instilled into the bladder, 30 minutes after administration
Text: Female rats were anesthetized with urethane. After the midline abdominal was incised, and the ureter on either side was ligated and cut, the renal end was kept open. A cannula was inserted into the urinary bladder through the top of the bladder dome and connected to a three-way connecter to establish routes for the intra-bladder pressure measurement and instillation into the bladder. The other end of the bladder cannula was connected to a pressure transducer, and intra-bladder pressure was measured. Saline was continuously instilled into the bladder (3.6 mL/hr) . […] After stable micturition intervals were obtained, silodosin (0.03 mg/kg), (−)-2-[4-[2-[[(1S, 2R)-2-hydroxy-2-(4-hydroxyphenyl)-1-methylethyl]amino]ethyl]-2,5-dimethylphenoxy] acetic acid (hereinafter referred to as “compound 2”) (1 mg/kg) or both of silodosin (0.03 mg/kg) and compound 2 (1 mg/kg) were injected through a femoral venous cannula respectively, and time from when a micturition occurred till when the next micturition was induced (micturition interval) was measured. Mean micturition intervals for 2 times before each drug administration and for all micturition which occurred in 30 minutes after the drug administration were calculated, and the change to the mean value before administration was evaluated. […]

anesthetized rats = test: Intra-bladder pressure measurement in anesthetized rat; type: in vivo; conditions: male rats, urethane anesthesia, after midodorin hydrochloride 3 mg/kg iv, isoproterenol 10 mg/kg iv = 100%
Text: Male rats were anesthetized with urethane. To each rat, tracheal and femoral vein cannulas were inserted. After midline abdominal incision, the ureter on either side was ligated and cut at the proximal end of the ligated portion. After the urethra was ligated, a cannula was inserted into the urinary bladder through the top of the bladder dome. Through a three-way connecter, warmed saline was instilled to adjust the intra-bladder pressure to about 10 cmH2O. The other end of the bladder cannula was connected to a pressure transducer, and intra-bladder pressure was measured. Three mg/kg of midodorin hydrochloride was injected through the femoral vein cannula. Ten minutes after the midodorin hydrochloride injection, tamsulosin hydrochloride (5 mg/kg, iv) or compound 1 (10 mg/kg, iv) was intravenously injected, and the decreasing effect by single administration of each drug was evaluated. Next, 15 minutes after administration, compound 1 (10 mg/kg, iv) was intravenously injected to the animal treated with tamsulosin hydrochloride (5 mg/kg, iv) to evaluate the combinational effect. At the last, 10 mg/kg of isoproterenol was intravenously injected, and the maximum decreasing effect was set as 100% .

C[C@H](Cc1cc2c(c(C(N)=O)c1)N(CCCO)CC2)NCCOc1ccccc1OCC(F)(F)F [silodosin]
change in the micturition interval (percentage of the mean value before administration) ([1]; silodosin 0.03 mg/kg iv alone): 115.2%

CCOc1ccccc1OCCN[C@H](C)Cc1ccc(OC)c(S(N)(=O)=O)c1 [tamsulosin hydrochloride]
effect decreasing the intra-bladder pressure (percentage of the maximum decreasing effect by isoproterenol) (anesthetized rats; tamsulosin hydrochloride 5 mg/kg iv alone): 26%

Cc1cc(OCC(=O)O)c(C)cc1CCN[C@@H](C)[C@H](O)c1ccc(O)cc1 [compound 2, (−)-2-[4-[2-[[(1S, 2R)-2-hydroxy-2-(4-hydroxyphenyl)-1-methylethyl]amino]ethyl]-2,5-dimethylphenoxy] acetic acid]
change in the micturition interval (percentage of the mean value before administration) ([1]; compound 2 1 mg/kg iv alone): 116.3%

CCOC(=O)COc1cc(C)c(CCN[C@@H](C)[C@H](O)c2ccc(O)cc2)cc1C [compound 1, ethyl (−)-2-[4-[2-[[(1S, 2R) -2-hydroxy-2-(4-hydroxyphenyl)1-methylethyl]amino]ethyl]-2,5-dimethyl-phenoxy]acetate]
effect decreasing the intra-bladder pressure (percentage of the maximum decreasing effect by isoproterenol) (anesthetized rats; compound 1 10 mg/kg iv alone): 37%
